Reference: ChEMBL document CHEMBL5370585, “Exploration and Biological Evaluation of 1,3-Diamino-7H-pyrrol[3,2-f]quinazoline Derivatives as Dihydrofolate Reductase Inhibitors” (J Med Chem, 2023)
Converted amounts (≈) assume the structure as drawn. The source made the active and inactive calls. No cut-off for these calls is given here.

Columns and labels:
Escherichia coli [1] = assay: Antibacterial activity against Escherichia coli ECO 15-1 incubated for 16 to 18 hrs by CLSI based broth dilution method; type: functional; details: time 16-18 hrs
Klebsiella pneumoniae [2] = assay: Antibacterial activity against Klebsiella pneumoniae ATCC 700603 assessed as reduction in microbial growth incubated for 16 to 18 hrs by CLSI based broth dilution method; type: functional; details: time 16-18 hrs
Escherichia coli [3] = assay: Antibacterial activity against Escherichia coli ATCC BAA-2340 incubated for 16 to 18 hrs by CLSI based broth dilution method; type: functional; details: time 16-18 hrs
Escherichia coli [4] = assay: Antibacterial activity against Escherichia coli ATCC 25922 incubated for 16 to 18 hrs in absence of human plasma by CLSI based broth dilution method; type: functional; details: time 16-18 hrs
Staphylococcus aureus [5] = assay: Antibacterial activity against methicillin-sensitive Staphylococcus aureus ATCC 25923 incubated for 16 to 18 hrs by CLSI based broth dilution method; type: functional; details: time 16-18 hrs
Acinetobacter baumannii [6] = assay: Antibacterial activity against Acinetobacter baumannii ATCC 19606 assessed as reduction in microbial growth incubated for 16 to 18 hrs by CLSI based broth dilution method; type: functional; details: time 16-18 hrs
Staphylococcus aureus [7] = assay: Antibacterial activity against Staphylococcus aureus ATCC 29213 incubated for 16 to 18 hrs in absence of human plasma by CLSI based broth dilution method; type: functional; details: time 16-18 hrs
Staphylococcus aureus [8] = assay: Antibacterial activity against Staphylococcus aureus ATCC 29213 incubated for 16 to 18 hrs in presence of human plasma by CLSI based broth dilution method; type: functional; details: time 16-18 hrs
Enterococcus faecalis [9] = assay: Antibacterial activity against Enterococcus faecalis ATCC 29212 incubated for 16 to 18 hrs by CLSI based broth dilution method; type: functional; details: time 16-18 hrs
Acinetobacter baumannii [10] = assay: Antibacterial activity against Acinetobacter baumannii 20-1 incubated for 16 to 18 hrs by CLSI based broth dilution method; type: functional; details: time 16-18 hrs
Staphylococcus aureus [11] = assay: Antibacterial activity against methicillin-resistant Staphylococcus aureus ATCC 43300 incubated for 16 to 18 hrs in absence of human plasma by CLSI based broth dilution method; type: functional; details: time 16-18 hrs
[12] = Toxicity in ICR mouse assessed as median lethal dose administered as single IP dose measured upto 8 days; details: in vivo, time < 8 day
Enterococcus faecalis [13] = assay: Antibacterial activity against Enterococcus faecalis EFA19-2 incubated for 16 to 18 hrs by CLSI based broth dilution method; type: functional; details: time 16-18 hrs
[14] = system: Staphylococcus epidermidis; assay: Antibacterial activity against Staphylococcus epidermidis ATCC 12228 incubated for 16 to 18 hrs by CLSI based broth dilution method; type: functional; details: time 16-18 hrs
Staphylococcus aureus [15] = assay: Antibacterial activity against methicillin-resistant Staphylococcus aureus ATCC 43300 incubated for 16 to 18 hrs in presence of human plasma by CLSI based broth dilution method; type: functional; details: time 16-18 hrs
Staphylococcus aureus [16] = assay: Antibacterial activity against methicillin-sensitive Staphylococcus aureus 15-2 incubated for 16 to 18 hrs by CLSI based broth dilution method; type: functional; details: time 16-18 hrs
Pseudomonas aeruginosa = assay: Antibacterial activity against Pseudomonas aeruginosa ATCC 27853 incubated for 16 to 18 hrs by CLSI based broth dilution method; type: functional; details: time 16-18 hrs
Escherichia coli [17] = assay: Antibacterial activity against Escherichia coli ATCC 25922 incubated for 16 to 18 hrs in presence of human plasma by CLSI based broth dilution method; type: functional; details: time 16-18 hrs
Staphylococcus aureus [18] = assay: Antibacterial activity against Staphylococcus aureus ATCC 29213 incubated for 16 to 18 hrs by CLSI based broth dilution method; type: functional; details: time 16-18 hrs
Staphylococcus aureus [19] = assay: Antibacterial activity against Methicillin-resistant Staphylococcus aureus ATCC 43300 infected in ip dosed ICR mouse thigh infection model assessed as reduction in bacterial growth measured after 24 hrs post-treatment; type: functional, organism-based; details: dose lower 7.5 mg/kg, dose upper […]
Enterococcus = assay: Antibacterial activity against Vancomycin-resistant Enterococcus ATCC 51575 incubated for 16 to 18 hrs by CLSI based broth dilution method; type: functional; details: time 16-18 hrs
Staphylococcus aureus [20] = assay: Antibacterial activity against methicillin-sensitive Staphylococcus aureus 15-1 incubated for 16 to 18 hrs by CLSI based broth dilution method; type: functional; details: time 16-18 hrs
Enterococcus faecalis [21] = assay: Antibacterial activity against Enterococcus faecalis EFA19-1 incubated for 16 to 18 hrs by CLSI based broth dilution method; type: functional; details: time 16-18 hrs
Staphylococcus aureus [22] = assay: Antibacterial activity against vancomycin intermediate Staphylococcus aureus ATCC 700788 incubated for 16 to 18 hrs by CLSI based broth dilution method; type: functional; details: time 16-18 hrs
Escherichia coli [23] = assay: Antibacterial activity against Escherichia coli ATCC 25922 incubated for 16 to 18 hrs by CLSI based broth dilution method; type: functional; details: time 16-18 hrs
Klebsiella pneumoniae [24] = assay: Antibacterial activity against Klebsiella pneumoniae 15-1 assessed as reduction in microbial growth incubated for 16 to 18 hrs by CLSI based broth dilution method; type: functional; details: time 16-18 hrs
Acinetobacter baumannii [25] = assay: Antibacterial activity against Acinetobacter baumannii 20-2 incubated for 16 to 18 hrs by CLSI based broth dilution method; type: functional; details: time 16-18 hrs
Staphylococcus aureus [26] = assay: Antibacterial activity against vancomycin intermediate Staphylococcus aureus ATCC 700699 incubated for 16 to 18 hrs by CLSI based broth dilution method; type: functional; details: time 16-18 hrs
Staphylococcus aureus [27] = assay: Antibacterial activity against methicillin-resistant Staphylococcus aureus ATCC 33591 incubated for 16 to 18 hrs by CLSI based broth dilution method; type: functional; details: time 16-18 hrs
Acinetobacter baumannii [28] = assay: Antibacterial activity against Acinetobacter baumannii ATCC 19606 incubated for 16 to 18 hrs by CLSI based broth dilution method; type: functional; details: time 16-18 hrs
Staphylococcus aureus [29] = assay: Antibacterial activity against methicillin-sensitive Staphylococcus aureus ATCC 29213 incubated for 16 to 18 hrs by CLSI based broth dilution method; type: functional; details: time 16-18 hrs
Staphylococcus aureus [30] = assay: Antibacterial activity against methicillin-resistant Staphylococcus aureus ATCC 43300 incubated for 16 to 18 hrs by CLSI based broth dilution method; type: functional; details: time 16-18 hrs
[31] = biological target: T1, Dihydrofolate reductase (Homo sapiens) (UniProt P00374); assay: Inhibition of human DHFR at 1 uM incubated for 10 mins in presence of NADPH by colorimetry based analysis relative to control
T1 sequence (whole entry): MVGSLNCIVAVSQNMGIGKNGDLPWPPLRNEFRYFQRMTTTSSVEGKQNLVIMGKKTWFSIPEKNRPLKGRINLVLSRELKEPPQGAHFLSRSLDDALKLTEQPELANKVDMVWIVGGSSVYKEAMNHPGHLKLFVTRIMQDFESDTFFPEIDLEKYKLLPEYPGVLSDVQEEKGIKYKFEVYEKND

HCT-116 = assay: Cytotoxicity against human HCT-116 cells measured after 72 hrs by MTT assay; type: functional, cell-based; details: HCT-116, 72 h
HepG2 = assay: Cytotoxicity against human HepG2 cells measured after 72 hrs by MTT assay; type: functional, cell-based; details: HepG2, 72 h
HGC-27 = assay: Cytotoxicity against human HGC-27 cells measured after 72 hrs by MTT assay; type: functional, cell-based; details: HGC-27, 72 h
MCF7 = assay: Cytotoxicity against human MCF7 cells measured after 72 hrs by MTT assay; type: functional, cell-based; details: MCF7, 72 h
Escherichia coli [32] = assay: Antibacterial activity against Escherichia coli ATCC 25922 assessed as inhibition of bacterial growth at upto 8 times MIC measured upto 28 hrs by time kill curve assay; type: functional, organism-based
Staphylococcus aureus [33] = assay: Drug resistance against methicillin-resistant Staphylococcus aureus ATCC 43300 assessed as increase in MIC measured after 10 passaging for 24 hrs; type: functional, organism-based
Staphylococcus aureus [34] = assay: Antibacterial activity against methicillin-resistant Staphylococcus aureus ATCC 43300 assessed as inhibition of bacterial growth at upto 8 times MIC measured upto 28 hrs by time kill curve assay; type: functional, organism-based
[35] = Toxicity in ip dosed ICR mouse assessed as animal death at high dose measured upto 8 days; type: organism-based; details: in vivo, 192 h, time < 8 day

SMILES	MIC (Escherichia coli [1]) [µg/mL]	MIC (Klebsiella pneumoniae [2]) [µg/mL]	MIC (Escherichia coli [3]) [µg/mL]	MIC (Escherichia coli [4]) [µg/mL]	MIC (Staphylococcus aureus [5]) [µg/mL]	MIC (Acinetobacter baumannii [6]) [µg/mL]	MIC (Staphylococcus aureus [7]) [µg/mL]	MIC (Staphylococcus aureus [8]) [µg/mL]	MIC (Enterococcus faecalis [9]) [µg/mL]	MIC (Acinetobacter baumannii [10]) [µg/mL]	MIC (Staphylococcus aureus [11]) [µg/mL]	LD50 at 192 h [12] [mg/kg]	MIC (Enterococcus faecalis [13]) [µg/mL]	MIC [14] [µg/mL]	MIC (Staphylococcus aureus [15]) [µg/mL]	MIC (Staphylococcus aureus [16]) [µg/mL]	MIC (Staphylococcus aureus [18]) [µg/mL]	MIC (Escherichia coli [23]) [µg/mL]	MIC (Acinetobacter baumannii [28]) [µg/mL]	MIC (Staphylococcus aureus [30]) [µg/mL]	further results
COc1cc(Cc2cnc(N)nc2N)cc(OC)c1OC [TRIMETHOPRIM]	> 64	4	64 (≈ 220 µM)	0.5 (≈ 1.72 µM)	1 (≈ 3.44 µM)	16	1 (≈ 3.44 µM)	1	0.5 (≈ 1.72 µM)	> 64	0.5 (≈ 1.72 µM)	> 800	0.5 (≈ 1.72 µM)	≤ 0.004	0.5	0.25 (≈ 0.861 µM)	1 (≈ 3.44 µM)	0.5 (≈ 1.72 µM)	16 (≈ 55.1 µM)	0.5 (≈ 1.72 µM)	MIC (Pseudomonas aeruginosa): > 64 µg/mL; MIC (Escherichia coli [17]): 0.5 µg/mL; Activity (Staphylococcus aureus [19]): Active; MIC (Enterococcus): ≤ 0.03 µg/mL; MIC (Staphylococcus aureus [20]): 0.5 µg/mL (≈ 1.72 µM); MIC (Enterococcus faecalis [21]): 0.25 µg/mL (≈ 0.861 µM); MIC (Staphylococcus aureus [22]): 0.5 µg/mL (≈ 1.72 µM); MIC (Klebsiella pneumoniae [24]): 8 µg/mL; MIC (Acinetobacter baumannii [25]): 16 µg/mL (≈ 55.1 µM); MIC (Staphylococcus aureus [26]): 1 µg/mL (≈ 3.44 µM); MIC (Staphylococcus aureus [27]): 1 µg/mL (≈ 3.44 µM); MIC (Staphylococcus aureus [29]): 1 µg/mL (≈ 3.44 µM)
Nc1nc(N)c2c(ccc3c2ccn3Cc2cccc3cccnc23)n1	> 64	16	> 64		≤ 0.03	2			0.06 (≈ 0.176 µM)	64 (≈ 188 µM)			≤ 0.03	1 (≈ 2.94 µM)		≤ 0.03	0.25 (≈ 0.734 µM)	0.5 (≈ 1.47 µM)	2 (≈ 5.88 µM)	≤ 0.03	inhibition [31]: 38.7%; IC50 (HCT-116): > 10000 nM; MIC (Pseudomonas aeruginosa): > 64 µg/mL; IC50 (HepG2): 1220 nM; IC50 (HGC-27): 1710 nM; MIC (Enterococcus): ≤ 0.03 µg/mL; MIC (Staphylococcus aureus [20]): ≤ 0.03 µg/mL; MIC (Enterococcus faecalis [21]): ≤ 0.03 µg/mL; MIC (Staphylococcus aureus [22]): ≤ 0.03 µg/mL; MIC (Klebsiella pneumoniae [24]): 16 µg/mL; MIC (Acinetobacter baumannii [25]): 2 µg/mL (≈ 5.88 µM); MIC (Staphylococcus aureus [26]): 0.06 µg/mL (≈ 0.176 µM); MIC (Staphylococcus aureus [27]): ≤ 0.03 µg/mL; IC50 (MCF7): 1450 nM; MIC (Staphylococcus aureus [29]): ≤ 0.03 µg/mL
Nc1nc(N)c2c(ccc3c2ccn3Cc2cccc3scnc23)n1				0.03 (≈ 0.0866 µM)			0.008 (≈ 0.0231 µM)	0.25	≤ 0.004		≤ 0.004	88.9		≤ 0.004	0.25		0.008 (≈ 0.0231 µM)	0.03 (≈ 0.0866 µM)	0.5 (≈ 1.44 µM)	0.004 (≈ 0.0115 µM)	Activity (Escherichia coli [32]): Active; Activity (Staphylococcus aureus [33]): Active; IC50 (HCT-116): 32 nM; Activity (Staphylococcus aureus [34]): Active; MIC (Escherichia coli [17]): 0.25 µg/mL; IC50 (HepG2): 170 nM; IC50 (HGC-27): 11 nM; Activity [35]: Toxic; IC50 (MCF7): 110 nM
